Measurements taken from patent publication US6900216B2, “Dihydroimidazo[2,1-b]thiazole and dihydro-5h-thiazolo[3,2-A]pyrimidines as antidepressant agents” (Knoll GmbH, priority 2000, dated 2005).

How the values were obtained:
5-HT reuptake sites = target: T1, 5-HT reuptake sites (Rattus norvegicus, UniProt P31652); test: 5-HT uptake: displacement of [3H]citalopram from 5-HT reuptake sites, rat frontal cortical membranes; format: binding
T1 construct: Frontal cortical tissue from the brains of male Charles River rats; from tissue; host or cells: rat frontal cortical membranes
T1 sequence (P31652 whole entry): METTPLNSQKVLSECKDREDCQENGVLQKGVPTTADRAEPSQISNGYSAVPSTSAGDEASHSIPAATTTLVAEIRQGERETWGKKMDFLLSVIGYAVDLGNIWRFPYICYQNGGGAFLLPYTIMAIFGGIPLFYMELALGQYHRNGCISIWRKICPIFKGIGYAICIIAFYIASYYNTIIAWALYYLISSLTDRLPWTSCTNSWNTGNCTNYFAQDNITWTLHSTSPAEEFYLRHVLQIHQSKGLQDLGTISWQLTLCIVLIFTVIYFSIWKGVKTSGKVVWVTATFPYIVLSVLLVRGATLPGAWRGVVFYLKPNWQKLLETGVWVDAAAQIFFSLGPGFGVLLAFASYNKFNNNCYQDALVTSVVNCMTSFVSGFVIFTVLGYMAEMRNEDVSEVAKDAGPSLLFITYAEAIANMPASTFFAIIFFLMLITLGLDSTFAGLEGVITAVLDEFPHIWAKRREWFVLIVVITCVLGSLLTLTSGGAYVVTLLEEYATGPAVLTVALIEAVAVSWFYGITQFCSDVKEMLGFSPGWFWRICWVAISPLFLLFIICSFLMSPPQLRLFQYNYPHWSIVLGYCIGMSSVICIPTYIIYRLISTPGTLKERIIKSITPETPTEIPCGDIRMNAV
Procedure: Frontal cortical tissue from the brains of male Charles River rats weighing 150-250 g was homogenised in ice-cold 50 mM Tris-HCl, pH 7.4 (when measured at 25° C.) containing 120 mM sodium chloride and 5 mM potassium chloride (Tris buffer; 1:30 w/v) and centrifuged at 40,000 g for 10 minutes. The supernatant was discarded and the pellet rehomogenised in Tris buffer, 1:60 w/v, and centrifuged at 40,000 g for 10 minutes. This step was repeated a further time. The final pellet was resuspended in 50 mM Tris-HCl, pH 7.4 containing 120 mM sodium chloride and 5 mM potassium chloride (equivalent to 3.125 mg wet weight of tissue/ml) and used immediately in the binding assay. All centrifugations were performed at 4° C.
Membranes (400 μl; equivalent to 1.25 mg wet weight of tissue/tube) were incubated with 50 μl [^3H]citalopram at a single concentration of 1.3 nM and 50 μl of distilled water (total binding) or 50 μl of test compound (at a single concentration of 10^−6 M or at 10 concentrations ranging from 10^−11-10^−3 M) or 50 μl of paroxetine (0.5 μM; non-specific binding) for 1 h at 27° C. Membrane bound radioactivity was recovered by filtration under vacuum through Skatron 11734 filters presoaked in 0.5% PEI using a Skatron Cell Harvester. Filters were then washed in ice-cold 50 mM Tris-HCl buffer, pH 7.4 (at 25° C., wash setting 9,9,0). The scored filter paper discs were punched out into vials, scintillation fluid added and radioactivity determined by liquid scintillation counting.
(§1) For each of these tests measuring the ability of compounds of Formula I to displace standard ligands from 5-HT1A receptors and 5-hydroxytryptamine (5-HT) and noradrenaline (NA) reuptake sites and muscarinic receptors in vitro, the percentage displacement of specific binding of tritiated ligand by 10^−6 M test compound was calculated in the following way.
(§2) Firstly, specific binding of tritiated ligand in the absence (A) and presence (B) of test compound was determined:
(§3) In the absence of compound: A(dpm)=Total binding (dpm)−Non-specific binding (dpm) In the presence of compound (10^−6 M): B(dpm)=Binding at 10^−6M (dpm)−Non-specific binding (dpm)
(§4) The specific binding of tritiated ligand in the presence (B) of compound was then converted to a percentage of specific binding of tritiated ligand in the absence (A) of compound: % Specific binding at 10^−6 M=B(dpm)/A(dpm)×100
(§5) The percentage displacement of specific binding of tritiated ligand by the test compound (10^−6 M) was then obtained by subtraction of the percentage specific binding in the presence of compound from the percentage specific binding in the absence of compound, which is taken as the maximum binding and so equals 100%:
(§6) % Displacement at 10^−6 M=100−% Specific binding at 10^−6 M.
(§7) In some cases, displacement curves were then produced for compounds which displaced ≧50% of specific binding of the tritiated ligand at 10^−6 M using a range of concentrations of the compound. The Ki was then calculated by simultaneous fitting using equations derived from the Feldman equations by robust non-linear regression to data from three experiments simultaneously (De Lean et al., 1978; Munson and Rodbard, 1980; Feldman, 1992). Munson P J and Rodbard D. Ligand: a versatile computerised approach for characterisation of ligand binding systems. Anal Biochem 1980; 107: 220. Feldman HA. Mathematical theory of complex ligand binding systems at equilibrium: some methods for parameter fitting. Anal Biochem 1992: 48, 317. De Lean A, Munson P J and Rodbard D. Simultaneous analysis of families of sigmoidal curves: application to bioassay, radioligand assay, and physiological dose-response curves. Am J Physiol 1978: 235 (2), E97-E102.
The results obtained in the above tests for 5-HT1A binding and 5-HT and NA uptake and muscarinic binding for the final products of Examples 1-39 hereinafter are given in Table 1 below. Kis are in nM. % Figures are for % displacement at 10^−6 M for a single determination.

[1] = target: T2, noradrenaline (NA) reuptake sites (Rattus norvegicus, UniProt Q63380); test: NA uptake: displacement of [3H]nisoxetine from noradrenaline reuptake sites, rat frontal cortical membranes; format: binding
T2 construct: Frontal cortical tissue from the brains of male Charles River rats; from tissue; host or cells: rat frontal cortical membranes
T2 sequence (Q63380 1-617): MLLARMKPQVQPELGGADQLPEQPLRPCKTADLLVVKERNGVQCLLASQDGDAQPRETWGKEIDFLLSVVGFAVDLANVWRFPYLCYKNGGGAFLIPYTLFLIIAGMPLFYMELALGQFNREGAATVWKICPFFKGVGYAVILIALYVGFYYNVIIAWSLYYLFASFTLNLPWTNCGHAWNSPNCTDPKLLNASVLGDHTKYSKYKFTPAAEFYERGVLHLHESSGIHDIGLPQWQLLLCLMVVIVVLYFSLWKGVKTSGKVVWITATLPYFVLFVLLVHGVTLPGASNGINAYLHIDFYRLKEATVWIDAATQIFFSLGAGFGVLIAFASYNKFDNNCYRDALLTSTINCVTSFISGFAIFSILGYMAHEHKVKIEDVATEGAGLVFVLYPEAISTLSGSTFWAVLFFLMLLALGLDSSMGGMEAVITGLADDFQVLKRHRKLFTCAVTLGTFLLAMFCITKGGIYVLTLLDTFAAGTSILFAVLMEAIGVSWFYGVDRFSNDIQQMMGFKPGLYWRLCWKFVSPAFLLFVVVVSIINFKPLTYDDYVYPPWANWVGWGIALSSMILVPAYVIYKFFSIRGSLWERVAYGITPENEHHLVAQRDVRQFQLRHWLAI
Procedure: Frontal cortical tissue from the brains of male Charles River rats weighing 150-250 g was homogenised in ice-cold 50 mM Tris-HCl, pH 7.4 (at 25° C.) containing 120 mM sodium chloride and 5 mM potassium chloride (Tris buffer; 1:60 w/v) using a Kinematic polytron (speed setting 6 for 10 seconds) and centrifuged at 40,000 g for 10 minutes. The supernatant was discarded and the pellet rehomogenised in Tris buffer, 1:60 w/v, and centrifuged at 40,000 g for 10 minutes. This step was repeated twice more so that, in total, the brain tissue was homogenised and centrifuged four times. The final pellet was resuspended in 50 mM Tris-HCl, pH 7.4 containing 300 mM sodium chloride and 5 mM potassium chloride (equivalent to 18.75 mg wet weight of tissue/ml) and used immediately in the binding assay. All centrifugations were performed at 4° C.
Membranes (400 μl; equivalent to 7.5 mg wet weight of tissue/tube) were incubated with 50 μl [^3H]nisoxetine at a single concentration of 0.6 nM and 50 μl of distilled water (total binding) or 50 μl^− of test compound (at a single concentration 10^−6M or at 10 concentrations ranging from 10^−11-10^−3 M) or 50 μl of mazindol (1 μM; non-specific binding) for 4 h at 4° C. Membrane bound radioactivity was recovered by filtration under vacuum through Skatron 11734 filters using a Skatron cell harvester. Filters were rapidly washed with ice-cold 50 mM Tris-HCl, pH 7.4 containing 120 mM sodium chloride and 5 mM potassium chloride (wash setting 9,9,0). The scored filter paper discs were punched out into vials, scintillation fluid added and radioactivity determined by liquid scintillation counting.
as §1, §2, §3, §4, §5, §6
as §7, with “E97-E102. […]” for “E97-E102.”

Compound | Ki (5-HT reuptake sites; [3H]citalopram 1.3 nM, rat frontal cortical membranes, fit to data from three experiments) [nM] | melting point [°C] | Ki ([1]; [3H]nisoxetine 0.6 nM, rat frontal cortical membranes, fit to data from three experiments) [nM] | inhibition at 1 µM (5-HT reuptake sites; 10^−6 M test compound, single determination, [3H]citalopram) [%] | inhibition at 1 µM ([1]; read-out: NA uptake % displacement at 10^−6 M) [%]
Br.CC1=C(c2ccc(F)c3sccc23)N2CCN=C2S1 [Example 38, 3-(7-fluorobenzo[b]thiophen-4-yl)-2-methyl-5,6-dihydroimidazo[2,1-b]thiazole hydrobromide] | 61 | 265 to 267 | 1.2 |  | 
C=CC1=C(c2cccc3sccc23)N2CCN=C2S1.Cl [Example 39, 3-(benzo[b]thiophen-4-yl)-2-vinyl-5,6-dihydroimidazo[2,1-b]thiazole hydrochloride] |  | 195 to 197 |  | 70 | 100
